Laboratory results: ChEMBL document CHEMBL1201862, “PubChem BioAssay data set” (2004)
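These data come from cells grown in 96-well plates and exposed to compound for 48 hours at five concentrations. GI50: concentration for 50% inhibition of growth.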 Calls of active or inactive are those of the source. Cut-off read from the data, not from the text of the source: active = GI50 up to about 1.1 µM and inactive = higher.

Tests used:
Assay in all cases: NCI tumour cell line growth inhibition, 48 h
786-0 = test system: 786-0
A498 = test system: A498
A549 = test system: A549
ACHN = test system: ACHN
BT-549 = test system: BT-549
CAKI-1 = test system: CAKI-1
CCRF-CEM = test system: CCRF-CEM
COLO 205 = test system: COLO 205
DU-145 = test system: DU-145
EKVX = test system: EKVX
HCC 2998 = test system: HCC 2998
HCT-116 = test system: HCT-116
HCT-15 = test system: HCT-15
HL-60 = test system: HL-60
HOP-62 = test system: HOP-62
HOP-92 = test system: HOP-92
HT-29 = test system: HT-29
Hs-578T = test system: Hs-578T
IGROV-1 = test system: IGROV-1
K562 = test system: K562
KM12 = test system: KM12
LOX IMVI = test system: LOX IMVI
M14 = test system: M14
MCF7 = test system: MCF7
MDA-MB-231 = test system: MDA-MB-231
MDA-MB-435 = test system: MDA-MB-435
MDA-N = test system: MDA-N
MOLT-4 = test system: MOLT-4
Malme-3M = test system: Malme-3M
NCI-H226 = test system: NCI-H226
NCI-H23 = test system: NCI-H23
NCI-H460 = test system: NCI-H460
NCI-H522 = test system: NCI-H522
NCI/ADR-RES = test system: NCI/ADR-RES
OVCAR-3 = test system: OVCAR-3
OVCAR-4 = test system: OVCAR-4
OVCAR-5 = test system: OVCAR-5
OVCAR-8 = test system: OVCAR-8
PC-3 = test system: PC-3
RPMI-8226 = test system: RPMI-8226
RXF 393 = test system: RXF 393
SF-268 = test system: SF-268
SF-295 = test system: SF-295
SF-539 = test system: SF-539
SK-MEL-28 = test system: SK-MEL-28
SK-MEL-2 = test system: SK-MEL-2
SK-MEL-5 = test system: SK-MEL-5
SK-OV-3 = test system: SK-OV-3
SN12C = test system: SN12C
SNB-19 = test system: SNB-19
SNB-75 = test system: SNB-75
SW-620 = test system: SW-620
T47D = test system: T47D
TK-10 = test system: TK-10
U-251 = test system: U-251
UACC-257 = test system: UACC-257
UACC-62 = test system: UACC-62
UO-31 = test system: UO-31

Structure (SMILES): O=C(O)c1ccc(Nc2ccnc3cc(Cl)ccc23)cc1O
- GI50 (786-0): > 100 µM (inactive)
- GI50 (A498): > 100 µM (inactive)
- GI50 (A549): > 100 µM (inactive)
- GI50 (ACHN): > 100 µM (inactive)
- GI50 (BT-549): > 100 µM (inactive)
- GI50 (CAKI-1): > 100 µM (inactive)
- GI50 (CCRF-CEM): > 100 µM (inactive)
- GI50 (COLO 205): > 100 µM (inactive)
- GI50 (DU-145): > 100 µM (inactive)
- GI50 (EKVX): > 100 µM (inactive)
- GI50 (HCC 2998): 39.6 µM (inactive)
- GI50 (HCT-116): > 100 µM (inactive)
- GI50 (HCT-15): > 100 µM
- GI50 (HL-60): > 100 µM (inactive)
- GI50 (HOP-62): 45.7 µM (inactive)
- GI50 (HOP-92): > 100 µM (inactive)
- GI50 (HT-29): > 100 µM (inactive)
- GI50 (Hs-578T): > 100 µM (inactive)
- GI50 (IGROV-1): > 100 µM (inactive)
- GI50 (K562): > 100 µM (inactive)
- GI50 (KM12): > 100 µM (inactive)
- GI50 (LOX IMVI): > 100 µM (inactive)
- GI50 (M14): > 100 µM (inactive)
- GI50 (MCF7): > 100 µM (inactive)
- GI50 (MDA-MB-231): > 100 µM (inactive)
- GI50 (MDA-MB-435): > 100 µM (inactive)
- GI50 (MDA-N): > 100 µM (inactive)
- GI50 (MOLT-4): > 100 µM (inactive)
- GI50 (Malme-3M): > 100 µM (inactive)
- GI50 (NCI-H226): > 100 µM (inactive)
- GI50 (NCI-H23): > 100 µM (inactive)
- GI50 (NCI-H460): > 100 µM (inactive)
- GI50 (NCI-H522): > 100 µM (inactive)
- GI50 (NCI/ADR-RES): > 100 µM (inactive)
- GI50 (OVCAR-3): > 100 µM (inactive)
- GI50 (OVCAR-4): > 100 µM (inactive)
- GI50 (OVCAR-5): > 100 µM (inactive)
- GI50 (OVCAR-8): > 100 µM (inactive)
- GI50 (PC-3): > 100 µM (inactive)
- GI50 (RPMI-8226): > 100 µM (inactive)
- GI50 (RXF 393): > 100 µM (inactive)
- GI50 (SF-268): > 100 µM (inactive)
- GI50 (SF-295): > 100 µM (inactive)
- GI50 (SF-539): 11.1 µM (inactive)
- GI50 (SK-MEL-28): > 100 µM (inactive)
- GI50 (SK-MEL-2): > 100 µM (inactive)
- GI50 (SK-MEL-5): > 100 µM (inactive)
- GI50 (SK-OV-3): > 100 µM (inactive)
- GI50 (SN12C): > 100 µM (inactive)
- GI50 (SNB-19): > 100 µM (inactive)
- GI50 (SNB-75): > 100 µM (inactive)
- GI50 (SW-620): > 100 µM (inactive)
- GI50 (T47D): > 100 µM (inactive)
- GI50 (TK-10): 61.4 µM (inactive)
- GI50 (U-251): 95.1 µM (inactive)
- GI50 (UACC-257): > 100 µM (inactive)
- GI50 (UACC-62): > 100 µM (inactive)
- GI50 (UO-31): > 100 µM (inactive)
